Where two headings read alike, the source gives them in different places.
Tests used:
[1] = target: T1, human BRD4 bromodomain II (Homo sapiens, UniProt O60885); assay: Bromodomain binding assay (AlphaScreen), BRD4 BDII
T1 construct: human BRD4 bromodomain II [based on Genbank NM_058243, residues 349-460]; host or cells: E. coli
Method in brief: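 First, His6-tagged BRD4 bromodomain (BDI residues 44-170 or BDII residues 349-460) is incubated with compound for 30 min at room temperature. Next the biotinylated H4 peptide is added for 30 min, then donor and acceptor beads, with 60 min in the dark before AlphaScreen reading and IC50 fitting.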

[2] = test system: human SKM-1 acute myeloid leukemia cells; assay: SKM-1 antiproliferation cell-based assay (ATPlite); details: Homo sapiens
Method in brief: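 Log-phase cells in RPMI 1640/15% FBS were seeded at 34722 cells/mL and exposed for 4 days to nine-concentration DMSO serial dilutions in triplicate. Viability was read as ATP luminescence (ATPlite 1step), and IC50 values came from variable-slope non-linear regression.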

[3] = AlphaScreen assay, Table C2, read-out: BRD4 BDII IC50
[4] = SKM-1, 96 h, SKM-1 antiproliferation assay, 4 days, Table C2
[5] = BRD4 BDII AlphaScreen assay, read-out: BRD4 BD2 IC50
[6] = SKM-1, SKM-1 antiproliferation assay

| SMILES | IC50 [1, 3] | GI50 [2, 4] | IC50 [1, 5] | GI50 [2, 6] |
| --- | --- | --- | --- | --- |
| Cn1ccn(-c2ccc(-c3cc(F)cc(-c4cc(N5CCC[C@@H](N)C5)c5cn[nH]c5c4)c3O)cc2Cl)c1=O [Example 586, (R)-1-(3′-(4-(3-aminopiperidin-1-yl)-1H-indazol-6-yl)-3-chloro-5′-fluoro-2′-hydroxy-[1,1′-biphenyl]-4-yl)-3-methyl-1H-imidazol-2(3H)-one] | 1 to 10 nM | 0.3 to 30 nM |  |  |
| O=C1CCCN1c1ccc(-c2cc(F)cc(-c3ccnc(N4CC5(CNC5)C4)c3)c2O)cc1F [Example 285, 1-(3′-(2-(2,6-diazaspiro[3.3]heptan-2-yl)pyridin-4-yl)-3,5′-difluoro-2′-hydroxy-[1,1′-biphenyl]-4-yl)pyrrolidin-2-one] | 10 to 100 nM | 300 to 3000 nM |  |  |
| CC(=O)Nc1ccc(-c2cccc(-c3cc(OC4CCC(O)CC4)nc(N4CCNCC4)c3)c2O)cc1F (centres unmarked) [Example 361, N-(3-fluoro-2′-hydroxy-3′-(2-((4-hydroxycyclohexyl)oxy)-6-(piperazin-1-yl)pyridin-4-yl)-[1,1′-biphenyl]-4-yl)acetamide] | 10 to 100 nM | 30 to 300 nM |  |  |
| CC(=O)Nc1cnc(-c2cc(F)cc(-c3cccc(N4CCN(C(C)(C)C)CC4)c3)c2O)nc1 [Example 894] |  |  | > 100 nM | 300 to 3000 nM |
| C[C@@H]1CN(c2cc(-c3cc(F)cc(-c4ccc(-n5ccn(C)c5=O)c(Cl)c4)c3O)cc(OCCCO)n2)CCN1 [Example 638, (R)-1-(3-chloro-5′-fluoro-2′-hydroxy-3′-(2-(3-hydroxypropoxy)-6-(3-methylpiperazin-1-yl)pyridin-4-yl)-[1,1′-biphenyl]-4-yl)-3-methyl-1H-imidazol-2(3H)-one] | 0.01 to 1 nM | 0.3 to 30 nM |  |  |
| Cn1ccn(-c2ccc(-c3cc(F)cc(-c4ccnc(C5=CCCNC5)c4)c3O)cc2Cl)c1=O [Example 657, 1-(3-chloro-5′-fluoro-2′-hydroxy-3′-(1′,2′,5′,6′-tetrahydro-[2,3′-bipyridin]-4-yl)-[1,1′-biphenyl]-4-yl)-3-methyl-1H-imidazol-2(3H)-one] | 0.01 to 1 nM | 0.3 to 30 nM |  |  |
| Cn1ccn(-c2ccc(-c3cc(F)cc(-c4cccc(-c5cccc(O)c5)c4)c3O)cc2Cl)c1=O [Example 864] |  |  | 10 to 100 nM | 300 to 3000 nM |
| Cn1ccn(-c2ccc(-c3cc(F)cc(-c4ccnc(N5CC6CC6(O)C5)c4)c3O)cc2Cl)c1=O (centres unmarked) [Example 770, 1-(3-chloro-5′-fluoro-2′-hydroxy-3′-(2-(1-hydroxy-3-azabicylco[3.1.0]hexan-3-yl)pyridin-4-yl)-[1,1′-biphenyl]-4-yl)-3-methyl-1H-imidazol-2(3H)-one] | 1 to 10 nM | 30 to 300 nM |  |  |
| COc1ncc(-c2cc(F)cc(-c3ccc(-n4ccn(C)c4=O)c(Cl)c3)c2O)cc1N1CC[C@@](C)(O)C1 [Example 812, (R)-1-(3-chloro-5′-fluoro-2′-hydroxy-3′-(5-(3-hydroxy-3-methylpyrrolidin-1-yl)-6-methoxypyridin-3-yl)-[1,1′-biphenyl]-4-yl)-3-methyl-1H-imidazol-2(3H)-one] | 0.01 to 1 nM | 0.3 to 30 nM |  |  |
| CCN1CCN(c2cc(-c3cc(F)cc(-c4ccc(-n5ccn(C)c5=O)c(Cl)c4)c3O)ccn2)CC1 [Example 469, 1-(3-chloro-3′-(2-(4-ethylpiperazin-1-yl)pyridin-4-yl)-5′-fluoro-2′-hydroxy-[1,1′-biphenyl]-4-yl)-^3-methyl-1H-imidazol-2(3H)-one] | 0.01 to 1 nM | 0.3 to 30 nM |  |  |
| Cc1cc(-c2ccc(-n3ccn(C)c3=O)c(Cl)c2)c(O)c(-c2cccc(N3CCC4(CCN4C(C)C)C3)c2)n1 (centres unmarked) [Example 983, 1-(2-chloro-4-(3-hydroxy-2-(3-(1-isopropyl-1,6-diazaspiro[3.4]octan-6-yl)phenyl)-6-methylpyridin-4-yl)phenyl)-3-methyl-1H-imidazol-2(3H)-one] |  |  | 0.01 to 1 nM | 0.3 to 30 nM |
| CN1CCN(c2ccc(-c3cccc(-c4ccc(CO)c(N5CCNCC5)c4)c3O)cc2Cl)C1=O [Example 317, 1-(3-chloro-2′-hydroxy-4″-(hydroxymethyl)-3″-(piperazin-1-yl)-[1,1′:3′,1″-terphenyl]-4-yl)-3-methylimidazolidin-2-one] | 1 to 10 nM | 30 to 300 nM |  |  |
| Cn1ccn(-c2ccc(-c3cc(F)cc(-c4ccc(Cl)c(N5CC[C@@](C)(O)C5)c4)c3O)cc2Cl)c1=O [Example 842, (R)-1-(3,4″-dichloro-5′-fluoro-2′-hydroxy-3″-(3-hydroxy-3-methylpyrrolidin-1-yl)-[1,1′:3′,1″-terphenyl]-4-yl)-3-methyl-1H-imidazol-2(3H)-one] | 1 to 10 nM | 30 to 300 nM |  |  |
| COc1ncc(-c2cc(F)cc(-c3ccc(-n4ccn(C)c4=O)c(Cl)c3)c2O)cc1N1CC[C@@]2(CCN2C(C)C)C1 [Example 902] |  |  | 0.01 to 1 nM | 0.3 to 30 nM |
| Cn1ccn(-c2ccc(-c3cc(F)cc(-c4ccnc(N5CCNC(CCO)C5)c4)c3O)cc2Cl)c1=O (centres unmarked) [Example 640, 1-(3-chloro-5′-fluoro-2′-hydroxy-3′-(2-(3-(2-hydroxyethyl)piperazin-1-yl)pyridin-4-yl)-[1,1′-biphenyl]-4-yl)-3-methyl-1H-imidazol-2(3H)-one] | 0.01 to 1 nM | 0.3 to 30 nM |  |  |
| CC(C)N1CCN(c2ccc(-c3cc(F)cc(-c4ccnc(N5CCNCC5)c4)c3O)cc2Cl)C1=O [Example 364, 1-(3-chloro-5′-fluoro-2′-hydroxy-3′-(2-(piperazin-1-yl)pyridin-4-yl)-[1,1′-biphenyl]-4-yl)-3-isopropylimidazolidin-2-one] | > 100 nM | ≥ 3000 nM |  |  |
| Cc1cc(-c2cc(-c3cn[nH]c3)cc(N3CCNCC3)c2)c(O)c(-c2ccc(-n3ccn(C)c3=O)c(Cl)c2)c1 [Example 570] | 1 to 10 nM | 0.3 to 30 nM |  |  |
| Cc1cc(-c2ccc(-n3ccn(C)c3=O)c(F)c2)c(O)c(-c2cnc(C)c(N3CCN(C(C)(C)C)CC3)c2)n1 [Example 1001, 1-(4-(5′-(4-(tert-butyl)piperazin-1-yl)-3-hydroxy-6,6′-dimethyl-[2,3′-bipyridin]-4-yl)-2-fluorophenyl)-3-methyl-1H-imidazol-2(3H)-one] |  |  | 1 to 10 nM | 0.3 to 30 nM |
| [2H]C([2H])([2H])n1ccn(-c2ccc(-c3cc(F)cc(-c4ccnc(N5CCN[C@H](C)C5)c4)c3O)cc2Cl)c1=O [Example 453, (R)-1-(3-chloro-5′-fluoro-2′-hydroxy-3′-(2-(3-methylpiperazin-1-yl)pyridin-4-yl)-[1,1′-biphenyl]-4-yl)-3-deuteromethyl-1H-imidazol-2(3H)-one] | 0.01 to 1 nM | 0.3 to 30 nM |  |  |
| CC(=O)Nc1ccc(-c2cccc(-c3ccnc(N4CC[C@@H](O)C4)c3)c2O)cc1F [Example 251, (R)-N-(3-fluoro-2′-hydroxy-3′-(2-(3-hydroxypyrrolidin-1-yl)pyridin-4-yl)-[1,1′-biphenyl]-4-yl)acetamide] | 10 to 100 nM | 30 to 300 nM |  |  |
| C[C@@H]1CN(c2cc(-c3cccc(-c4ccc(N5CCCC5=O)c(F)c4)c3O)ccn2)CCN1 [Example 252, (R)-1-(3-fluoro-2′-hydroxy-3′-(2-(3-methylpiperazin-1-yl)pyridin-4-yl)-[1,1′-biphenyl]-4-yl)pyrrolidin-2-one] | 1 to 10 nM | 300 to 3000 nM |  |  |
| Cc1ncc(-c2cc(F)cc(-c3ccc(-n4ccn(C)c4=O)c(Cl)c3)c2O)cc1N1CC[C@@](C)(O)C1 [Example 825, (R)-1-(3-chloro-5′-fluoro-2′-hydroxy-3′-(5-(3-hydroxy-3-methylpyrrolidin-1-yl)-6-methylpyridin-3-yl)-[1,1′-biphenyl]-4-yl)-3-methyl-1H-imidazol-2(3H)-one] | 0.01 to 1 nM | 0.3 to 30 nM |  |  |
| CC(=O)Nc1ccc(-c2cc(F)cc(-c3cccc(N4CCNCC4)c3)c2O)cc1F [Example 180, N-(3,5′-difluoro-2′-hydroxy-3″-(piperazin-1-yl)-[1,1′:3′,1″-terphenyl]-4-yl)acetamide] | 1 to 10 nM | 300 to 3000 nM |  |  |
| CN1CCN(c2ccc(-c3cccc(-c4ccnc(N5CC6(CNC6)C5)c4)c3O)cc2F)C1=O [Example 322, 1-(3′-(2-(2,6-diazaspiro[3.3]heptan-2-yl)pyridin-4-yl)-3-fluoro-2′-hydroxy-[1,1′-biphenyl]-4-yl)-3-methylimidazolidin-2-one] | 10 to 100 nM | 30 to 300 nM |  |  |
| CC(=O)Nc1ccc(-c2cccc(-c3cccc(N4CC5CNC(C5)C4)c3)c2O)cc1F (centres unmarked) [Example 206, N-(3″-(3,6-diazabicyclo[3.2.1]octan-3-yl)-3-fluoro-2′-hydroxy-[1,1′:3′,1″-terphenyl]-4-yl)acetamide] | 1 to 10 nM | 30 to 300 nM |  |  |
| Cn1ccn(-c2ccc(-c3cc(F)cc(-c4ccnc(-c5ccncc5)c4)c3O)cc2Cl)c1=O [Example 481, 1-(3′-([2,4′-bipyridin]-4-yl)-3-chloro-5′-fluoro-2′-hydroxy-[1,1′-biphenyl]-4-yl)-3-methyl-1H-imidazol-2(3H)-one] | 1 to 10 nM | 300 to 3000 nM |  |  |
| Cn1ccn(-c2ccc(-c3cc(F)cc(-c4cc(N5CCNCC5)c5nn[nH]c5c4)c3O)cc2Cl)c1=O [Example 535, 1-(3-chloro-5′-fluoro-2′-hydroxy-3′-(4-(piperazin-1-yl)-1H-benzo[d][1,2,3]triazol-6-yl)-[1,1′-biphenyl]-4-yl)-3-methyl-1H-imidazol-2(3H)-one] | 1 to 10 nM | 0.3 to 30 nM |  |  |
| CC(=O)Nc1ccc(-c2cc(F)cc(-c3ccnc(N4CC5(CNC5)C4)c3)c2O)cc1Cl [Example 298, N-(3′-(2-(2,6-diazaspiro[3.3]heptan-2-yl)pyridin-4-yl)-3-chloro-5′-fluoro-2′-hydroxy-[1,1′-biphenyl]-4-yl)acetamide] | 10 to 100 nM | 30 to 300 nM |  |  |

— patent publication US20250179059A1 (The Regents of the University of California, priority 2021, published 2025)
